The compounds below were run against mGluR1 (Homo sapiens, UniProt Q13255) (assay: mGluR1 activity screening using FDSS6000 (intracellular calcium, L-Glutamate stimulation)). Conditions: Chem3 Cell Line (HTS145C:Millipore) stably expressing mGluR1, L-Glutamate 30 μM, Ca2+ fluorescent dye, read-out: IC50 (nM) against mGluR1.
Format: cell-based
Description: mGluR1 Activity Screening Method Using FDSS6000
Cells of Chem3 Cell Line (HTS145C:Millipore) in which mGluR1 was stably expressed were adjusted to a density of 2×10^6/ml. 50 μl of the cells were plated in each well of a 96-well plate, and stabilized at 5% CO2 and 37° C. for 1 hr. The cells were allowed to react with an HBSS buffer containing a Ca^2+ fluorescent dye (FLIPR Calcium 5 assay kit: Molecular Devices) under the conditions of 5% CO2 and 37° C. for 30 min. As a result of the reaction, the cells were labeled with the fluorescent dye. Separately from the 96-well plate containing the fluorescently labeled cells, another 96-well plate was prepared that contained L-Glutamate (final concentration=30 μM) activating mGluR1 and a blocking drug to be screened. Most cell-based HTS systems have liquid application systems necessary for drug injection but no liquid inhalation systems. For this reason, 25 μl of each of the blocking drug and L-Glutamate was prepared at a 6-fold higher concentration in an HBSS buffer and diluted 6-fold in the final volume […] of the cell plate before measurement. Specifically, after drug pretreatment for 75 sec following recording the reference value at 20 sec, a change in intracellular calcium concentration caused by L-glutamate administration was measured using FDSS6000. The inhibitory effect of the test substance was expressed as a percent (%) relative to the area of the 480 nm/520 nm ratio in a control group untreated with the test substance. 10 μM PCTC20001 was always used as the control drug.
For detailed imaging of calcium, the cells were selectively exposed to an excitation wavelength (480 nm) from four xenon light sources mounted in FDSS6000 through a computer-controlled filter wheel. Data were recorded at 1.23-sec intervals. Emitter fluorescence light entering through a 520 nm long-pass filter was allowed to pass through a cooled CCD camera mounted in the system. An average 480 nm/520 nm ratio was obtained in each well of the 96-well plate using a digital fluorescence analyzer. All imaging data were collected and analyzed with the help of a dedicated program for FDSS6000 (Hamamatsu Photonics).
Measurement of IC50 Values Against mGluR1
The IC50 values (nM) of the novel compounds of Formula 1 according to the present invention against mGluR1 are shown in Table 1.

Sequence of mGluR1 (Q13255 19-1194): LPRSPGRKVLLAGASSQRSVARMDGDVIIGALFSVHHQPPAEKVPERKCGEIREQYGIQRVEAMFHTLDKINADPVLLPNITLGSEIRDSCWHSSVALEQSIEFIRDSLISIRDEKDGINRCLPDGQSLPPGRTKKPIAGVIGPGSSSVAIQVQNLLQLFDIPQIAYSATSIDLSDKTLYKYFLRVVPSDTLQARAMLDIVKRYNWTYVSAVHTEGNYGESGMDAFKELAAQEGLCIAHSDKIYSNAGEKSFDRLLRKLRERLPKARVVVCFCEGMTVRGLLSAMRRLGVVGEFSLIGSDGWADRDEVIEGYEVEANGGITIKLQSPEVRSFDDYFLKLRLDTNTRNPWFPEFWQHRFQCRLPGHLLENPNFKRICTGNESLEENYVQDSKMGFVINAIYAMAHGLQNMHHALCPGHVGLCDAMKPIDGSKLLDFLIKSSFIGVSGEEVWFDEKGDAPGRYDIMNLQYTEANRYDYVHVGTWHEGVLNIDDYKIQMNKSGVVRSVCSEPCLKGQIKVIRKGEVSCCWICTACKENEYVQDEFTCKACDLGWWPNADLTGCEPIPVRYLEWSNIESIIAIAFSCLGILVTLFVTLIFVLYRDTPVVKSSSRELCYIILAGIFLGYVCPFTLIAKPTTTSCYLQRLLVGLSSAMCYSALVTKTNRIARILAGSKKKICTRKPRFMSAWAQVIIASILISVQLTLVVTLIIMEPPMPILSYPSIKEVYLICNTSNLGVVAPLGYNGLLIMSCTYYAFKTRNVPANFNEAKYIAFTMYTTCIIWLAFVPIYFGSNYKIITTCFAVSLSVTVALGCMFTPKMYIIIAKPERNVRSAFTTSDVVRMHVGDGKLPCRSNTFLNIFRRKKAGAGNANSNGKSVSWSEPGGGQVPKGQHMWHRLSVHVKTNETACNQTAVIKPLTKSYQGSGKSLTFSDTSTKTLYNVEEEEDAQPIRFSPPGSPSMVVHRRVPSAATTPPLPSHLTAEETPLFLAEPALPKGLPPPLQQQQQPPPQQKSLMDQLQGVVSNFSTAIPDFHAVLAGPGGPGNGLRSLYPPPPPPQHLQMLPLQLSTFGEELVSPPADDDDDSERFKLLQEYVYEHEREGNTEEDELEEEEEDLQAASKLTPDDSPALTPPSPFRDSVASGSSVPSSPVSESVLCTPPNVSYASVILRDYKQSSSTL

Row | IC50 [nM] | SMILES
1 | 58 | O=c1c2scc(-c3ccccc3)c2ncn1-c1cccc(Cl)c1 [Compound 6, 3-(3-Chlorophenyl)-7-phenylthieno[3,2-d]pyrimidin-4(3H)-one]
2 | 564 | COc1ccc(-n2c(C)nc3c(-c4ccccc4)csc3c2=O)cc1 [Compound 74, 3-(4-Methoxyphenyl)-2-methyl-7-phenylthieno[3,2-d]pyrimidin-4(3H)-one]
3 | 1990 | COc1ccc(-n2cnc3c(-c4ccc5c(c4)OCO5)csc3c2=O)cc1 [Compound 69, 7-(Benzo[d][1,3]dioxol-5-yl)-3-(4-methoxyphenyl)thieno[3,2-d]pyrimidin-4(3H)-one]
4 | 80 | Cc1ccc(-c2csc3c(=O)n(-c4ccc(Cl)cc4)cnc23)cc1 [Compound 58, 3-(4-Chlorophenyl)-7-(p-tolyl)thieno[3,2-d]pyrimidin-4(3H)-one]
5 | 661 | COc1ccc(-n2cnc3c(-c4ccc(C)cc4)csc3c2=O)cc1 [Compound 59, 3-(4-Methoxyphenyl)-7-(p-tolyl)thieno[3,2-d]pyrimidin-4(3H)-one]
6 | 30 | O=c1c2scc(-c3ccccc3F)c2ncn1-c1ccc(Cl)cc1 [Compound 32, 3-(4-Chlorophenyl)-7-(2-fluorophenyl)thieno[3,2-d]pyrimidin-4(3H)-one]
7 | 112 | Cc1ccc(-n2cnc3c(-c4ccccc4)csc3c2=O)cc1 [Compound 18, 7-Phenyl-3-p-tolylthieno[3,2-d]pyrimidin-4(3H)-one]
8 | 66 | O=c1c2scc(-c3ccccc3)c2ncn1-c1ccc(Cl)cc1 [Compound 7, 3-(4-Chlorophenyl)-7-phenylthieno[3,2-d]pyrimidin-4(3H)-one]
9 | 407 | O=c1c2scc(-c3ccccc3)c2ncn1-c1ccccc1F [Compound 2, 3-(2-Fluorophenyl)-7-phenylthieno[3,2-d]pyrimidin-4(3H)-one]
10 | 447 | O=c1c2scc(-c3ccc4c(c3)OCO4)c2ncn1-c1ccc(Cl)cc1 [Compound 68, 7-(Benzo[d][1,3]dioxol-5-yl)-3-(4-chlorophenyl)thieno[3,2-d]pyrimidin-4(3H)-one]
11 | 74 | C=Cc1cccc(-n2cnc3c(-c4ccccc4)csc3c2=O)c1 [Compound 29, 7-Phenyl-3-(3-vinylphenyl)thieno[3,2-d]-pyrimidin-4(3H)-one]

From patent US9260448B2, “Thienopyrimidinone derivatives as mGluR1 antagonists” (KOREA INSTITUTE OF SCIENCE AND TECHNOLOGY, priority 2013, dated 2016)
